Common to all, as to format: cell-based, human
The test system of one test is melanoma cell lines. The experiment in a line: oligonucleotide array, expression of genes encoding tumor associated antigens. The settings on record: six melanoma cell lines, 48 hours, 100 U/ml IFN-α. How it is done:
The cell lines CNCM I-2544 (375), CNCM I-2545 (D10), CNCM I-2546 (15), CNCM I-2547 (51), CNCM I-2548 (59) and CNCM I-2549 (67) were cultured for 48 hours in the presence (+) or absence (−) of 100 U/ml IFN-α. The expression patterns of genes encoding tyrosinase, tyrosinase related protein-2 , pmel-17 and mart-1, HLA restricted, tumor associated antigens are reported. Grey bars refer to IFN-α sensitive cell lines and black bars refer to IFN-α resistant lines (see Table 1). Data are presented as average difference of signal intensity between match and mismatch probesets.
Cultured melanoma cells were harvested by scraping and total cellular RNA was extracted. […]
The normalized average difference (nAD) between the signals of the perfect and of the mismatch probesets for each gene was used as the expression level of a given gene. […] Based on nAD, change factors related to IFN-α exposure were also calculated. […]
Total cellular RNA was extracted from the sensitive and resistant melanoma cell lines identified above, reverse transcribed and processed for hybridization to an oligonucleotide array (Hu6800FL, PN 900183) containing probe sets derived from 7000 full-length human genes. Expression levels for each gene were calculated as normalized average difference (nAD, see materials and methods). […]

A further test relates to CNCM I-2546. The experiment in a line: proliferation inhibition, 3H-Thymidine incorporation. The settings on record: concentration inducing at least 50% inhibition of maximal proliferation. How it is done: (§1) Melanoma cell lines were screened for their sensitivity to proliferation inhibition and HLA class I induction. The study was done of six cell lines (CNCM I-2544, CNCM I-2545, CNCM I-2546, CNCM I-2547, CNCM I-2548 and CNCM I-2549).
(§2) All these cell lines were cultured in RPMI medium supplemented with 10% FCS, glutamine (2 mM), sodium pyruvate (1 mM), non-essential amino acids and HEPES buffer (10 mM) (all from GIBCO Life Sciences, Paisley, UK). When confluent, the cells were passaged by trypsinization.
(§3) A number of established melanoma cell lines were assayed for their sensitivity to IFN-α by testing the capacity of IFN-α to inhibit their proliferation and to increase their surface expression of HLA class I determinants.
(Uptake of a labelled nucleoside into DNA is a usual measure of proliferation.)

For another test, the system named is CNCM I-2548. Described as above. Particulars: concentration inducing at least 50% inhibition of maximal proliferation. How it is done:
as §1, §2, §3

For test [1], the system named is CNCM I-2544. Described as above. The settings on record: concentration inducing at least 50% inhibition of maximal proliferation. The procedure: as §1, §2, §3
The test system of the next test is CNCM I-2547. The description is as above. The settings on record: concentration inducing at least 50% inhibition of maximal proliferation. How it is done: as §1, §2, §3
Test [2] concerns CNCM I-2544. The experiment in a line: HLA class I induction, flow-cytometry. The settings on record: two days with IFN-α 100 U/ml, absence 305. The procedure:
as §1, §2, §3

These results are taken from patent US20030096237A1, “Determination of the ability of patients to respond to a tumor treatment” (priority 2000, published 2003).

Consider IFN-α, for which the “expression of the genes encoding TAA (MART-1/Melan-A, pmel-17, TRP-2, tyrosinase)” value in the test with melanoma cell lines is reported as “does not appear to influence”. Further, the “proliferation inhibition (IC50)” value in the test on CNCM I-2546 is reported as 100 U/ml; in the test on CNCM I-2548, 10 U/ml; in the test on CNCM I-2544 [1], 100 U/ml; in the test with CNCM I-2547, 10 U/ml. Besides, the “HLA class I induction, mean fluorescence intensity” value with CNCM I-2544 [2] was “(442 vs. 305)”.
